# Where a name gives a salt, the structure may show the parent alone. Read-outs that look alike come from different tables or passages of the source.
# What was measured:
# [1] = molecular target: T1, GST-cGB-PDE5 fusion protein (cGMP binding sites of human PDE5A) (Homo sapiens, UniProt O76074); assay: cGMP binding assay with GST-cGB-PDE5 fusion protein
# T1 construct: made in house; host or cells: E. coli BL21 (DE3)
# From the text: RT-PCR method is used to obtain the cGB domain of PDE5 with forward and reverse primers designed from bovine PDE5A cDNA sequence (McAllister-Lucas L. M. et al., J Biol. Chem. 268, 22863-22873, 1993) and the selection among PDE 1-10 families. 5′-3′, Inc. kits for total RNA followed by oligo (dT) column purification of mRNA are used with HT-29 cells. […] It is then cloned into pGEX-5×-3 glutathione-S-transferase (GST) fusion vector (Pharmacia Biotech )with tac promoter, and EcoRI and XhoI cut sites. The fusion vector is then transfected into E. Coli BL21 (DE3) bacteria (Invitrogen). The transfected BL21 bacteria is grown to log phase, and then IPTG is added as an induce. The induction is carried at 20° C. for 24 hrs. The bacteria are harvested and lysed. The soluble cell lysate is incubated with GSH conjugated Sepharose 4B (GSH-Sepharose 4B). The GST-cGB-PDE5 fusion protein can bind to the GSH-Sepharose beads, and the other proteins are washed off from beads with excessive cold PBS.
# Then, the mixture is transferred to Brandel MB-24 cell harvester with GF/B as the filter membrane followed by 2 washes with 10 mL of cold 5 mM potassium buffer(pH 6.8). The membranes are then cut out and transferred to scintillation, vials followed by the addition of 1 mL of H2O and 6 mL of Ready Safe™ liquid scintillation cocktail to each vial. The vials are counted on a Beckman LS 6500 scintillation counter.
# The quenching by filter membrane or other debris are also calibrated.
# U937 cells = assay: apoptosis induction of U937 cells (active caspase 3, indirect immunofluorescence); assay type: cell-based; conditions: 24 hours
# Protocol: U937 cells (from ATCC Rockville, Md.) were grown in RPMI media supplemented with 5% FCS, glutamine, antibiotic/antimycotic and sodium pyruvate. Total RNA was isolated from two U937 cultures, one treated with 5nM TPA for 48 hours and one grown in normal media as listed above, using the Rouche High Pure RNA Isolation Kit (cat# 1 828 665) as per manufacturers protocol. cDNA was then synthesized from the total RNA using GibcoBRL Superscriptll (Cat# 18064-022) reverse transcriptase as per manufacturers protocol. The resulting cDNA was used as a template for RT-PCR reactions using primer sets specific for PDE2 (forward: […], reverse: […]) or PDE5 (forward: […], reverse: […]). mRNA for PDE2 and 5 were both present in the untreated U937 cells. Upon treatment with TPA, the relative amounts of PDE2 mRNA increased 5 fold. Therefore, U937 cells treated with TPA and driven to differentiate into an activated macrophage like state have elevated levels of PDE2 mRNA (see FIG. 1).
# The presence of PDE2 and PDE5 protein within U937 cells was confirmed by indirect immunofluorescence (IIF). U937 cells were cultured as above. Two U937 cultures, one grown in the presence of 5 nM TPA for 48 hours and one grown in normal media were processed. All cultures were collected by centrifugation (Shandon Cytospin, 2 minutes @ 600 rpm) onto poly-L lysine-coated slides and immediately fixed in fresh 3% paraformaldehyde buffered in PBS for 10 minutes. Adherent cultures were grown on coverslips and fixed as above. Cells were permeablized in 0.2% triton-100 for 2 minutes. Slides were blocked with blocking buffer (5% goat serum, 5% glycerol, 1% gelatin from cold water fish skin and 0.04% NaN3 in PBS) for 1 hour at room temperature.
# Slides were then incubated for 1 hour at 37° C. in a humid chamber with antibodies specific for PDE2 (generated in a sheep against the peptide […]) or PDE5 (generated in sheep against the peptide […]). […]
# The level of apoptosis in U937 cells was quantified by scoring 500 consecutive cells for the presence of active caspase 3. […]
# 28-day study in rats = assay type: in vivo; conditions: 28 days, 50 and 500 mg/kg/day
# Protocol: A 28-day study in rats was also carried out at 0, 50, 500 and 2000 mg/kg/day.
# [2] = long-term safety assessment study in rats, 91 days; assay type: in vivo
# From the text: These changes were not associated with any gross clinical abnormality.
# [3] = 91-day oral study in dogs; assay type: in vivo; conditions: 91 days, highest dose group
# PDE 5 = PDE 5 (Homo sapiens, UniProt O76074); assay: competitive (with cGMP) binding to PDE5
# [4] = seven-day dose-range finding study in rats; assay type: in vivo; conditions: seven days, 2000 mg/kg/day
structure (smiles),measurement,setting,value
"O=c1ccn([C@@H]2O[C@@H]3COP(=O)(O)O[C@H]3[C@H]2O)c(=O)[nH]1 [cUMP, cyclic UMP]",competition with cGMP in binding to the cGMP binding sites of GST-cGB-PDE5,"[1]; 3H-cGMP 2 μM, 22° C., 1 hour",did not compete with cGMP in binding
CCCc1nn(C)c2c(=O)[nH]c(-c3cc(S(=O)(=O)N4CCN(C)CC4)ccc3OCC)nc12 [sildenafil],levels of apoptosis (active caspase 3),U937 cells; 0.3 nM,No increase in the levels of apoptosis compared to normal background
CCCCOC1C2OP(=O)(O)OCC2OC1n1cnc2c(N)ncnc21 (centres unmarked) [2′-O-butyl-cAMP],competition with cGMP in binding to the cGMP binding sites of GST-cGB-PDE5,"[1]; 3H-cGMP 2 μM, 22° C., 1 hour",did not compete with cGMP in binding
CCCCOC1C2OP(=O)(O)OCC2OC1n1cnc2c(=O)[nH]c(N)nc21 (centres unmarked) [2′-O-butyl-cGMP],competition with cGMP in binding to the cGMP binding sites of GST-cGB-PDE5,"[1]; 3H-cGMP 2 μM, 22° C., 1 hour",did not compete with cGMP in binding
"CC1=C(CC(=O)NCc2ccccc2)c2cc(F)ccc2/C1=C\c1ccncc1 [Example 38, (Z)-5-Fluoro-2-Methyl-(4-Pyridylidene)-3-(N-Benzyl) Indenylacetamide Hydrochloride]","apoptosis, fluorescent image of active caspase 3 (FIG. 8)",U937 cells; 1 μM,undergoing apoptosis as reflected by the presence of active caspase 3
same,liver and thyroid weight increases at the lower doses,28-day study in rats,not statistically significant
same,clinical biochemistry and hematology,[2],no changes in clinical biochemistry and hematology were evident
same,microscopic alterations of the liver,[3],no microscopic alterations
same,competition with cGMP in binding to the cGMP binding sites of GST-cGB-PDE5,"[1]; 3H-cGMP 2 μM, 22° C., 1 hour",does not bind to the cGMP-binding site of PDE5
same,competitive (with cGMP) binding to PDE 5,PDE 5,does competitively (with cGMP) bind to PDE 5
same,effects,[4],"labored breathing and/or abnormal respiratory sounds, decreased weights gains and food consumption ion male rats, and increased liver weights in female rats"
COc1ccc(C2CNC(=O)C2)cc1OC1CCCC1 (centres unmarked) [rolipram],levels of apoptosis (active caspase 3),U937 cells; 0.5 μM,No increase in the levels of apoptosis compared to normal background
"Nc1ccn([C@@H]2O[C@@H]3COP(=O)(O)O[C@H]3[C@H]2O)c(=O)n1 [cCMP, cyclic CMP]",competition with cGMP in binding to the cGMP binding sites of GST-cGB-PDE5,"[1]; 3H-cGMP 2 μM, 22° C., 1 hour",did not compete with cGMP in binding
Nc1ncnc2c1ncn2[C@@H]1O[C@@H]2COP(=O)(O)O[C@H]2[C@H]1O [Cyclic AMP],competition with cGMP in binding to the cGMP binding sites of GST-cGB-PDE5,[1],did not compete with cGMP in binding

# Reference: patent US20030176316A1, “Methods for treatment of rheumatoid arthritis” (priority 2001, published 2003)
